# Results as given in patent US9365857B2, “Xylose isomerase and xylitol dehydrogenase combination for xylose fermentation to ethanol and B. fragilis xylose isomerase” (Archer Daniels Midland Company, priority 2010, dated 2016).
# Assays:
# [1] = target: T1, B. fragilis xylose isomerase (SEQ. ID NO: 4) (Bacteroides fragilis, UniProt Q5LCV9); assay: xylitol inhibition of xylose isomerase activity (B. fragilis XI, SEQ. ID NO: 4); type: biochemical; conditions: 12.5 mM xylitol; percent of activity obtained in the absence of xylitol
# T1 construct: ID NO: 4 in comparison to its E. coli orthologue
# T1 sequence (Q5LCV9 whole entry, looked up, natural form): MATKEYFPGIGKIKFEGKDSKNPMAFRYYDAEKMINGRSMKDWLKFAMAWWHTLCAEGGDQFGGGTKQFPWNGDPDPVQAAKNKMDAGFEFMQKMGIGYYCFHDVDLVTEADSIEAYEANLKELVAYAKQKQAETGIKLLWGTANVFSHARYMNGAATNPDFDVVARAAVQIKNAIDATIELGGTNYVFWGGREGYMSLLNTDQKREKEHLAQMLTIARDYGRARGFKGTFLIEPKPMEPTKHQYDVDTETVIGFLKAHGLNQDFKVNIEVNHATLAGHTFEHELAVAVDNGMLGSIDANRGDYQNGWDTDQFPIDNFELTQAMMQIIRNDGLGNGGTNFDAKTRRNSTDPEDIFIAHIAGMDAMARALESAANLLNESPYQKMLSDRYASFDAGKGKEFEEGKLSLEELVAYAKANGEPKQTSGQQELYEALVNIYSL
# Method: (§1) Activity is reported as the percent of activity obtained in the absence of xylitol.
# (§2) A distinguishing feature of the B. fragilis isomerases described herein is that enzymes are less inhibited by xylitol than orthologue XI sequences from other organism. […] ID NO: 4 in comparison to its E. coli orthologue. At 12.5 mM xylitol, the E. coli XI activity is >97% inhibited, in contrast to the B. fragilis XI, which retains at least 30% of its activity at the same xylitol concentration.
# E. coli xylose isomerase = E. coli xylose isomerase (Escherichia coli, UniProt P00944); assay: xylitol inhibition of xylose isomerase activity (E. coli XI); type: biochemical; conditions: read-out: E. coli XI activity inhibited
# Sequence of E. coli xylose isomerase (P00944 whole entry): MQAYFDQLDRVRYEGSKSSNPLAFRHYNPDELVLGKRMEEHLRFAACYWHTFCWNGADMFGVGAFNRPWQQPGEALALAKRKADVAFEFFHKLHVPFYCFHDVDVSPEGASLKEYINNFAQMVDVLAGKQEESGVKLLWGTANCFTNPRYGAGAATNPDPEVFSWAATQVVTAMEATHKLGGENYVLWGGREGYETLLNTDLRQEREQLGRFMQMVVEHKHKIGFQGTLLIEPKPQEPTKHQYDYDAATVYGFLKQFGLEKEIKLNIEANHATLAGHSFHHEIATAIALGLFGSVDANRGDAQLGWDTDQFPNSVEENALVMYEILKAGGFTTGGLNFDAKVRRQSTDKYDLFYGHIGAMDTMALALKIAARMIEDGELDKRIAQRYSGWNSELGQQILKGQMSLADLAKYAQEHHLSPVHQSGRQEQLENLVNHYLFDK
# Method: as §1, §2
structure (smiles),measurement,setting,value
OC[C@@H](O)[C@H](O)[C@@H](O)CO [xylitol],B. fragilis XI activity retained,[1],at least 30%
same,inhibition at 12500 µM,E. coli xylose isomerase,> 97%
